Legend:
PC12 cells = test: Determination of neurite outgrowth rate in PC12 cells (image count); type: cell-based; details: for cells showing a neurite outgrowth rate of 1 time or more / cells showing a neurite outgrowth rate of 2 times or more: 96 hours
Description: PSG-1 belongs to an immunoglobulin super family which includes some having the function of promoting neurogenesis. Then, the influence of 1,5-AG upon neuritogenesis was investigated. This was evaluated in a test system using PC12 cells which are generally used for the evaluation of neuritogenesis.
PC12 cells (Lot No. 48, Lot No. 51) (RIKEN cell bank, material 1)
DMEM medium prepared by adding 0.1% of FBS, 0.1% of HS, 1 ng/mL NGF and 1% of penicillin-streptomycin
PC12 cells were initiated in a T-75 flask by using a growth medium to be cultured in a CO2 incubator (5% CO2, 37° C., moistening). Medium exchange was carried out every 2 days, the cells were collected when 80% confluence was reached, and cells having a passage number of 2 were used in this test. Stated more specifically, after the cells were washed with D-PBS (−), the cells were separated by using 0.05% trypsin, and a growth medium was added to neutralize trypsin. Then, the supernatant was removed by centrifugation (180 g, 5 minutes), a growth medium was added to stir the cells, the number of the cells was counted by using a corpuscle calculating board, and a growth medium was used to achieve a target concentration (2.0×10^3 cells/100 μL).
(§1) A test was carried out at five concentrations (1.6, 8, 40, 200 and 1,000 μg/mL) of 1,5-AG. Stated more specifically, a 1,5-AG aqueous solution having a concentration of 100 mg/mL was diluted with water to prepare 100 times-concentrated solutions having concentrations of 0.16, 0.8, 4, 20 and 100 mg/mL. These 100 times-concentrated solutions were each added to a test medium in a ratio of 1/100 to achieve final concentrations of 1.6, 8, 40, 200 and 1,000 μg/mL and sterilized with a filter to be used in the test. As a negative control, water was added to a medium in a ratio of 1/100 and sterilized with a filter to be used in the test. As a positive control, a test medium containing a 100 ng/mL nerve growth factor (NGF) was used.
A growth medium was used to adjust the cells to a concentration of 2.0×10^3 cells/100 μL/well, and the cells were scattered in a collagen-coated 96-well plate to be cultured in a CO2 incubator (5% CO2, 37° C., moistening) for 24 hours. After culture, the medium was replaced by a sample-containing test medium (100 μL), and the cells were cultured in a CO2 incubator for 96 hours. After the end of culture, an image of the cells in each well was taken with a phase difference microscope and used for the measurement of nuetrite outgrowth rate, and nuclei and cytoplasms were fluorescent dyed by using a neurite outgrowth staining kit to measure the number of living cells and the amount of neurite outgrowth. These procedures were carried out five times each.
Based on the image taken above, the total number of cells, the number of cells showing the same or higher neurite outgrowth than the cell length and the number of cells showing neurites having a length 2 times or more than the cell length were measured from the image of the cells. The percentage (%) of cells showing neurite outgrowth was calculated from the measurement values.

PSG-1 gene = PSG-1 gene expression in intestinal tract cells (Caco-2), real-time RT-PCR; type: cell-based; details: Caco-2 cells; for expression level of PSG-1 gene relative to non-added section: 3 days
Description: PSG-1 is a gene which is expressed in placental cells in large quantities in pregnancy. The influence of 1,5-AG upon the expression of PSG-1 in intestinal tract cells which is not connected with pregnancy was investigated.
as §1, with “to a medium in” for “to a test medium in”, “of […]” for “of 1.6, 8, 40, 200 and 1,000”, “8 and 40 μg/mL and” for “200 and 1,000 μg/mL and”, “the test.” for “the test. As a positive control, a test medium containing a 100 ng/mL nerve growth factor (NGF) was used.”
A medium was used to adjust Caco-2 cells to a concentration of 1×10^5 cells/0.3 mL/well, and the cells were scattered on a 48-well plate to be cultured in a CO2 incubator (5% CO2, 37° C.) for 14 days (medium was exchanged every other day). After culture, it was confirmed that the cells were differentiated into intestinal epidermoid cells, the medium was replaced by a sample-containing test medium and a control-containing test medium to culture the cells in a CO2 incubator for 3 days, and total RNA was extracted from the cells to analyze the expression level of PSG-1 gene. These procedures were repeated five times each.
Total RNA was extracted by using the FastLane Cell cDNA kit. […]
The synthesis of cDNA was carried out by using the QuantiTect reverse transcription kit. […]
Real-time PCT was carried out by an intercalator method using SYBR Green I. Stated more specifically, a total of an 8 μL system consisting of 1 μL of synthesized cDNA, 2.6 μL of dsH2O, 4 μL of SYBR Premix ExTag, 0.2 μL of Forward primer (5 μM) and 0.2 μL of Reverse primer (5 μM) was used. […] The relative expression level was calculated by the ? […]

Which results are given for `OC[C@H]1OC[C@H](O)[C@@H](O)[C@@H]1O` [1,5-AG, 1,5-anhydro-D-glucitol]?
cells showing a neurite outgrowth rate of 1 time or more (PC12 cells; 40 μg/mL 1,5-AG): 15.8%; cells showing a neurite outgrowth rate of 2 times or more (PC12 cells; 40 μg/mL 1,5-AG): 10.3%; cells showing a neurite outgrowth rate of 1 time or more (PC12 cells; 200 μg/mL 1,5-AG): 18.7%; cells showing a neurite outgrowth rate of 2 times or more (PC12 cells; 200 μg/mL 1,5-AG): 10.4%; cells showing a neurite outgrowth rate of 2 times or more, relative to non-added section (PC12 cells; 40 and 200 μg/mL 1,5-AG): about 2 times; expression level of PSG-1 gene relative to non-added section (PSG-1 gene; 8 μg/mL): 1.31 times; expression level of PSG-1 gene relative to non-added section (PSG-1 gene; 40 μg/mL): 1.34 times; average expression level of PSG-1 gene versus non-added section (PSG-1 gene; 3 days, 1,5-AG added section): tends to become higher
